Reference: ChEMBL document CHEMBL1156161, “Assessing the trypanocidal potential of natural and semi-synthetic diketopiperazines from two deep water marine-derived fungi” (Bioorg Med Chem, 2010)
≈ marks a conversion by molar mass, not a printed value.

Legend:
[1] = test system: Trypanosoma brucei brucei; test: Antitrypanosomal activity against Trypanosoma brucei brucei 427-221a after 40 hrs by bioluminescence assay; type: functional, organism-based
Rhodesain = Rhodesain (Trypanosoma brucei rhodesiense, UniProt Q95PM0); test: Inhibition of […] after 5 mins by spectrofluorimetry
Rhodesain, sequence (Q95PM0 whole entry): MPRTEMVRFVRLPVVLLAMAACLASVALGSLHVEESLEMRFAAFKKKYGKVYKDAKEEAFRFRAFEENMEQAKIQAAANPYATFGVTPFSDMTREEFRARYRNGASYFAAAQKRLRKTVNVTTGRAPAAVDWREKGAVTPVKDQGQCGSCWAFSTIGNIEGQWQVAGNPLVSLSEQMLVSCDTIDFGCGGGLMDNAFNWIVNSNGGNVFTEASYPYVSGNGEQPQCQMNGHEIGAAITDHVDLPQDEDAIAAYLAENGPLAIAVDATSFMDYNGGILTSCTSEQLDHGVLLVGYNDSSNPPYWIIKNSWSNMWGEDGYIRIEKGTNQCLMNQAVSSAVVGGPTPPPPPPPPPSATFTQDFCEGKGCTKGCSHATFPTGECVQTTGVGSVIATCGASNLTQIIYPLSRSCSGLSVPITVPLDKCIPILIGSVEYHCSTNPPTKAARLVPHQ

[2] = Inhibition of Trypanosoma brucei brucei recombinant cathepsin B assessed after 5 mins by spectrofluorimetry
Jurkat = test: Cytotoxicity against human Jurkat cells after 40 hrs bioluminescence assay; type: cell-based
[3] = Selectivity index, ratio of IC50 for human Jurkat cells to IC50 for Trypanosoma brucei brucei; type: toxicity, cell-based; conditions: for Ratio IC50: jurkat
HEK293 = test: Cytotoxicity against HEK293 cells; type: cell-based; conditions: Homo sapiens
[4] = Selectivity index, ratio of EC50 for HEK293 cells to EC50 for Trypanosoma brucei brucei; type: toxicity, cell-based; conditions: human, read-out: Ratio EC50
[5] = test system: Trypanosoma brucei rhodesiense; test: Antitrypanosomal activity against Trypanosoma brucei rhodesiense after 40 hrs by bioluminescence assay; type: functional
HeLa = test: Cytotoxicity against human HeLa cells; type: functional, cell-based
HUVEC = test: Cytotoxicity against HUVEC; type: cell-based; conditions: Homo sapiens
[6] = Inhibition of PAF
[7] = Toxicity in ip dosed ddY mouse; type: organism-based; conditions: in vivo
Macrophage = test: Immunomodulatory activity in macrophage assessed as inhibition of phagocytosis; type: functional; conditions: read-out: ED50 (the source's name)
A549 = test: Cytotoxicity against human A549 cells; type: functional, cell-based
[8] = Inhibition of Su(var)3-9
[9] = target: Thioredoxin reductase 1, cytoplasmic (Homo sapiens, UniProt Q16881); test: Inhibition of thioredoxin reductase 1
Thioredoxin reductase 1, cytoplasmic, sequence (Q16881 whole entry): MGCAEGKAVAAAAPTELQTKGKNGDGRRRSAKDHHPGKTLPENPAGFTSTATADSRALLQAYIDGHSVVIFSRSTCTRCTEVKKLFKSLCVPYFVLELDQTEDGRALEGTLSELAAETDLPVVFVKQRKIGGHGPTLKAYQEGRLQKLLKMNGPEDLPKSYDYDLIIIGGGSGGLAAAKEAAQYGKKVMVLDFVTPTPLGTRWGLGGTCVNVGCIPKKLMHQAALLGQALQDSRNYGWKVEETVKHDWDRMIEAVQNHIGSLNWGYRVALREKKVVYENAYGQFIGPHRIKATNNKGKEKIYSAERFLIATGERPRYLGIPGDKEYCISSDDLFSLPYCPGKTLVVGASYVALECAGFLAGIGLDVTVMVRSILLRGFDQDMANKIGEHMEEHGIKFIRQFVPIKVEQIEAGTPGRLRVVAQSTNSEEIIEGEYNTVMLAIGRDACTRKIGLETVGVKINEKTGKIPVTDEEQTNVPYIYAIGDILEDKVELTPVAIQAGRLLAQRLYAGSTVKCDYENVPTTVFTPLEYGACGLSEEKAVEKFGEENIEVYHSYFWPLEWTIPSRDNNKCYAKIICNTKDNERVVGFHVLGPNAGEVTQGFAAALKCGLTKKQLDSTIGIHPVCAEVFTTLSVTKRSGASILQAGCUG

[10] = target: Mycothiol S-conjugate amidase (Mycobacterium tuberculosis, UniProt P9WJN1); test: Inhibition of Mycobacterium tuberculosis mycothiol-S-conjugate amidase
Mycothiol S-conjugate amidase, sequence (P9WJN1 whole entry): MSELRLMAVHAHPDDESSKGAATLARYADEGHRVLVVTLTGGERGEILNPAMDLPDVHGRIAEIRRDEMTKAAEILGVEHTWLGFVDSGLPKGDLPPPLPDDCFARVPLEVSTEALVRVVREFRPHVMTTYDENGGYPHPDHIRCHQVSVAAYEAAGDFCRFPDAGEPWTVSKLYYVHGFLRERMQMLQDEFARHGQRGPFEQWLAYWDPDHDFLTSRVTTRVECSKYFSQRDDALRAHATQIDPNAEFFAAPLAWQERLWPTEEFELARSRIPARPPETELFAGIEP

[11] = Immunosuppression of mouse spleen lymphocytes; type: functional, tissue-based; conditions: lymphocyte
[12] = Inhibition of tubulin polymerization assessed as blockade of microtubule assembly at 250 uM; parameters: scale not given: the % may be the effect or the level left
[13] = Trypanosoma brucei, 427-221a, 40 h

`CS[C@]1(COC(C)=O)C(=O)N2[C@H]3C(=CC=C[C@@H]3O)C[C@@]2(SC)C(=O)N1C` showed an IC50 [1, 13] of over 50 µM.

With `CS[C@]1(CO)C(=O)N2[C@H]3C(=CC=C[C@@H]3OC(C)=O)C[C@@]2(SC)C(=O)N1C` the IC50 [1, 13] was 6.5 µM, the IC50 (Rhodesain) was 12.8 µM and the IC50 [2] was over 50 µM. The IC50 (Jurkat) was 125 µM and the “Ratio IC50” value [3] was 19.2 ratio.

Work on `N#Cc1nc(NCc2ccc(Cl)c(Cl)c2)c2ncn(CCCO)c2n1` yielded an EC50 [1, 13] of 0.11 µM, an EC50 (HEK293) of 25 µM and a selectivity ratio [4] of 227.

Work on `CS[C@]1(C)NC(=O)[C@](Cc2c[nH]c3ccccc23)(SC)NC1=O` [3,6 BISMETHYL(THIOCYCLO)ALANYLTRYPTOPHYL] yielded an IC50 [1, 13] of over 50 µM.

In the case of `C/C(=C\Cc1c(O)c(Cl)c(C)c(C=O)c1O)CC/C=C(\C)[C@@H]1CC(=O)C(C)(C)O1` [ASCOFURANONE], the IC100 [1] is reported as 0.03 µM.

For `C/C=C(\C)[C@@H]1C=C[C@@H]2C[C@H](C)C[C@H](C)C2[C@@H]1C(=O)C1=CC(C)(OCCCC)NC1=O` (some centres undefined) [ASCOSALIPYRROLIDINONE A], the MIC [5] was 30 µg/mL (≈ 72.5 µM).

With `CS[C@]1(CO)C(=O)N2[C@H]3C(=CC=C[C@@H]3O)C[C@@]2(SC)C(=O)N1C` [BIS(DETHIO)BIS(METHYLTHIO)GLIOTOXIN] the IC50 [1, 13] was 40.2 µM, the IC50 (Rhodesain) was over 50 µM and the IC50 [2] was over 50 µM. The IC50 (Jurkat) was 140 µM, the selectivity ratio ([3]; Jurkat cells, read-out: Ratio IC50) was 3.5 and the IC50 (HeLa) was over 2.81 µM. The IC50 (HUVEC) was 1.12 µM, the IC50 [6] was 8.4 µM and the LD50 [7] was over 500 mg/kg. The EC50 (Macrophage) was over 10 µM.

For `CN1C(=O)[C@@]23C[C@]4([C@]56C[C@@]78SS[C@@](CO)(C(=O)N7[C@H]5Nc5ccccc56)N(C)C8=O)c5ccccc5N[C@@H]4N2C(=O)[C@]1(CO)SS3` [CHAETOCIN], the IC50 [1, 13] was 0.002 µM, the IC50 (Rhodesain) was over 50 µM and the IC50 [2] was over 50 µM. It also gave an IC50 (Jurkat) of under 0.6 µM, an IC50 (A549) of under 0.025 µM and an IC50 [8] of 0.6 µM. It also gave an IC50 [9] of 4.6 µM.

In the case of `CS[C@]1(Cc2c[nH]c3ccccc23)NC(=O)[C@](CO)(SC)N(C)C1=O` [CHETOSEMINUDIN B], the IC50 [1, 13] is reported as 5.9 µM, the IC50 (Rhodesain) is reported as over 50 µM and the IC50 [2] is reported as over 50 µM. The IC50 (Jurkat) was 94.9 µM, the “Ratio IC50” value [3] was 16.1 ratio and the IC50 [10] was 70 µM. It also gave an IC50 [11] of 24 µM.

`COc1ccc2c3c([nH]c2c1)[C@H](C=C(C)C)N1C[C@@H]2CCCN2C[C@@]1(O)[C@H]3O` [CYCLOTRYPROSTATIN A] showed an Activity [12] of 66.4% and an IC50 [1, 13] of over 50 µM.

For `CS[C@]1(CO)C(=O)N2c3c(O)cccc3C[C@@]2(SC)C(=O)N1C` [DEHYDROBIS(METHYLTHIO)GLIOTOXIN], the IC50 [1, 13] was 8.5 µM, the IC50 (Rhodesain) was 19.5 µM and the IC50 [2] was over 50 µM. The IC50 (Jurkat) was 141 µM, the “Ratio IC50” value [3] was 16.6 ratio and the IC50 [6] was 16.9 µM.
